The values that follow come from patent publication US20230086702A1, “SUBSTITUTED 2-AMINO-PYRAZOLYL-[1,2,4]TRIAZOLO[1,5A]PYRIDINE DERIVATIVES AND USE THEREOF” (The Johns Hopkins University, priority 2019, published 2023).

In general, IC50 refers to the concentration that inhibits the measured activity by half. A high value points to weaker potency in that assay.

Molecules are shown by their SMILES.

One test has as its target T1, DLK (Homo sapiens, UniProt Q12852).
T1 construct: 10 nM DLK, catalytic domain, Carna Biosiences; purchased Carna Biosciences ('Carna Biosiences' [sic])
T1 sequence (Q12852 125-366 limits assumed): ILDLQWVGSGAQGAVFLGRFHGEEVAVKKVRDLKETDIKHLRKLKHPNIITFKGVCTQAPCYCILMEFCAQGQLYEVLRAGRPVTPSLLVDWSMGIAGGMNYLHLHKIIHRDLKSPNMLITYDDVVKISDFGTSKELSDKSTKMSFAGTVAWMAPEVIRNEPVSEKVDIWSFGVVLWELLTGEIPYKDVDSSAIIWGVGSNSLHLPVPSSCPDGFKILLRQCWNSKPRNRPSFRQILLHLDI
Put plainly: DLK biochemical assay (TR-FRET, MKK7 phosphorylation). The following applies: DLK catalytic domain, MKK7 substrate, 60 μM ATP. The method, boiled down:
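TR-FRET read-out (ratio of 665 nm acceptor to Eu donor channel) tracks MKK7 T275/S277 phosphorylation by DLK, using Eu-labelled anti-phospho-MKK7 and XL665-labelled anti-His on His-MKK7. Reactions were stopped and detected in pH 7.5 Tris buffer containing 100 mM EDTA, 100 mM NaCl, 200 mM KF and 0.01% Tween 20.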

For the next test, the target named is T2, LZK (Homo sapiens, UniProt O43283).
T2 construct: 10 nM LZK, catalytic domain, Carna Biosiences in assay buffer; purchased Carna Biosciences ('Carna Biosiences' [sic])
T2 sequence (O43283 168-409 limits assumed): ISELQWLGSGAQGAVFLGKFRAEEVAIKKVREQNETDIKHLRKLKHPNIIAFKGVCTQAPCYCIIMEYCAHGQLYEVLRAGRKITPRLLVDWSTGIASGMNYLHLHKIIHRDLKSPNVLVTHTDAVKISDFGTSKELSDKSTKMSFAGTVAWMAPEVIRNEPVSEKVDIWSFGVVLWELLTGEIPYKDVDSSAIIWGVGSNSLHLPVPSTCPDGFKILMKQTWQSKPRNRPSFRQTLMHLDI
The test can be described thus: LZK biochemical assay (TR-FRET, MKK7 phosphorylation). The following applies: LZK catalytic domain, MKK7 substrate, 15 μM ATP. (Time-resolved FRET reads energy transfer from a long-lived donor to a nearby acceptor.)

For `CC[C@H](C)NC(=O)c1cc(-c2cnn(C(c3ccc(C(F)(F)F)nc3)C3CCOCC3)c2)cn2nc(N)nc12` (single isomer, unassigned) [Example I-77], the values for the IC50 at DLK and at LZK were 5.9 nM and 6.9 nM, respectively.
`CC[C@H](C)NC(=O)c1cc(-c2cnn(C(c3ccc(C(F)(F)F)nc3)C3CCOCC3)c2)cn2nc(N)nc12` (single isomer, unassigned) [Example I-78]: the IC50 was found to be 0.7 nM against DLK and 1.7 nM against LZK.
Taken in the same sequence, the figures for `CC[C@H](C)NC(=O)c1cc(-c2cnn(C(c3ccc(C(F)(F)F)nc3)C3CCNCC3)c2)cn2nc(N)nc12` (single isomer, unassigned) [Example I-82] were 0.9 nM and 0.5 nM.
The like results for `CC[C@H](C)NC(=O)c1cc(-c2cnn(C(c3ccc(C(F)(F)F)nc3)C3CCNCC3)c2)cn2nc(N)nc12` (single isomer, unassigned) [Example I-83] were, in that order, 0.3 nM and 0.7 nM.
The like results for `CCC(c1ccc(OCC(F)(F)F)nc1)n1cc(-c2cc(C(=O)N[C@@H](C)CC)c3nc(N)nn3c2)cn1` (single isomer, unassigned) [Example I-86] were, in that order, 100 nM and 160 nM.
Turning to `CCC(c1ccc(OCC(F)(F)F)nc1)n1cc(-c2cc(C(=O)N[C@@H](C)CC)c3nc(N)nn3c2)cn1` (single isomer, unassigned) [Example I-87], the results for the IC50 on DLK and against LZK were 1.3 nM and 16 nM, respectively.
Taken in the same sequence, the figures for `CC[C@H](C)NC(=O)c1cc(-c2cnn(C(c3ccc(OCC(F)(F)F)nc3)C(C)C)c2)cn2nc(N)nc12` (single isomer, unassigned) [Example I-89] were 230 nM and 2000 nM.
The like results for `CC[C@H](C)NC(=O)c1cc(-c2cnn(C(c3ccc(OCC(F)(F)F)nc3)C(C)C)c2)cn2nc(N)nc12` (single isomer, unassigned) [Example I-90] were, in that order, 3 nM and 34 nM.
Taken in the same sequence, the figures for `CCC(c1ccc(C(F)F)nc1)n1cc(-c2cc(C(=O)N[C@@H](C)CC)n3nc(N)nc3c2)cn1` (single isomer, unassigned) [Example I-93] were 6.5 nM and 6.3 nM.
As for `CC[C@H](C)NC(=O)c1cc(-c2cnn([C@@H](CC)c3ccc(C(F)F)nc3)c2)cc2nc(N)nn12` (single isomer, unassigned) [Example I-94], the IC50 against DLK stood at 1 nM; against LZK, 1.9 nM.
Regarding `CC[C@H](C)NC(=O)c1cc(-c2cnn(C(c3ccc(C(F)F)nc3)C(C)C)c2)cc2nc(N)nn12` (single isomer, unassigned) [Example I-96], the results for the IC50 against DLK and at LZK were 14 nM and 17 nM, respectively.
The like results for `CC[C@H](C)NC(=O)c1cc(-c2cnn([C@H](c3ccc(C(F)F)nc3)C(C)C)c2)cc2nc(N)nn12` (single isomer, unassigned) [Example I-97] were, in that order, 0.9 nM and 2.1 nM.
On to `CC[C@H](C)NC(=O)c1cc(-c2cnn(C(c3ccc(C(F)F)nc3)C3CC3)c2)cc2nc(N)nn12` (single isomer, unassigned) [Example I-99], for which the values for the IC50 against DLK and on LZK were 31 nM and 14 nM, respectively.
Taken in the same sequence, the figures for `CC[C@H](C)NC(=O)c1cc(-c2cnn(C(c3ccc(C(F)F)nc3)C3CC3)c2)cc2nc(N)nn12` (single isomer, unassigned) [Example I-100] were 2.8 nM and 4.3 nM.
Taken in the same sequence, the figures for `CC[C@H](c1ccc(C(F)(F)F)nc1)n1cc(-c2cc(C(=O)N[C@@H](C)CC)n3nc(N)nc3c2)cn1` (single isomer, unassigned) [Example I-102] were 7 nM and 11 nM.
Taken in the same sequence, the figures for `CC[C@H](C)NC(=O)c1cc(-c2cnn([C@@H](CC)c3ccc(C(F)(F)F)nc3)c2)cc2nc(N)nn12` (single isomer, unassigned) [Example I-103] were 0.8 nM and 2.4 nM.
